Columns and labels:
Conditions in all cases: Dutch harbor, sea water
algae = assay: Raft panel static immersion test of antifouling paints: algae; set-up: key: G: Not present; Some light slime; F: Overall covered
Source text: (§1) The prepared paints have been evaluated on can stability, adhesion and film defects. The antifouling performance has been tested by application of the paints on raft panels. At first the steel panels had been protected with a standard anticorrosive system for marine environments (300 μm in dft). The to be tested antifouling paint had been applied in 2 layers with a total dry film thickness between 200 and 300 μm. Finally the panels were subjected to a static immersion test on rafts at sea harbors in Holland. The paints were inspected for the presence of fouling (% of area covered with fouling organisms) and of film defects every two months. The tested paint formulations are represented in Table 1.
(§2) Further explanations to Table 1: • 1. Model coatings of type 1 (MC-1A/B/C) are for the evaluation of the algicidal properties of the claimed structures at three different representative weight-% next to 35% cuprous oxide. Good performing references are model coating MC-2 and MC-3 [35% cuprous oxide+3% Seanine (MC-2) or 35% cuprous oxide+3% Irgarol (MC-3)]. Base level references are “cuprous oxide only” formulations [cuprous oxide only (35% (MC4) and 50% level (MC-5)]. • 2. Model coatings of type 6 and 7 are for the evaluation of the activity of the claimed structures against “hard fouling” in combination with two different types of algicides: claimed structure (1/2/4%; MC-6-A/B/C)+3% Seanine or claimed structure (1/2/4%; MC-7-A/B/C)+3% Irgarol). Base level references are “algicide only” formulations with 3% Seanine (MC-8) or 3% Irgarol (MC-9).
(§3) 3. Model coatings of type 10 (MC-10A/B) evaluate the total spectrum of biocidal activity by using the claimed structure as only biocide at 2 levels (4 and 8 w %). Good performing references are “cuprous oxide only” formulations [cuprous oxide 35% (MC-4) and 50% (MC-5)]. As blank serves model coating 11 (MC-1 1) containing no biocide at all.
(§4) The claimed structures were tested at several levels of dosage with and without an algicide as co-biocide. The following formulations were used for comparison: formulations with cuprous oxide, formulations with cuprous oxide and commercial co-biocides, a blank and two formulations that only contained the co-biocide and finally a commercial tributyltin-releasing self polishing system.
(§5) An even better protection can be obtained by combining claimed structures with co-biocides like the algicides that are commonly used for antifoulings.

fouling organisms = assay: Raft panel static immersion test of antifouling paints: overall; set-up: key: good (G); satisfactory (S); failure (F)
Source text: as §1, §2, §3, §4, §5

slime = assay: Raft panel static immersion test of antifouling paints: slime; set-up: key: G: Not present; Some light slime; F: Overall covered
Source text: as §1, §2, §3, §4, §5

hard fouling = assay: Raft panel static immersion test of antifouling paints: hard fouling; set-up: key: G: Not present; Some light slime; F: Overall covered
Source text: as §1, §2, §3, §4, §5

[1] = model coating 1B: 35% Cu2O + 2% of compound
[2] = model coating 1C: 35% Cu2O + 3% of compound
[3] = model coating 6A: 1% of compound + 3% Seanine
[4] = model coating 6B: 2% of compound + 3% Seanine
[5] = model coating 6C: 4% of compound + 3% Seanine
[6] = model coating 7A: 1% of compound + 3% Irgarol
[7] = model coating 7B: 2% of compound + 3% Irgarol
[8] = model coating 7C: 4% of compound + 3% Irgarol
[9] = model coating 1A: 35% Cu2O + 1% of compound
[10] = model coating 10A: 4% of compound as only biocide
[11] = model coating 10B: 8% of compound as only biocide

Row | SMILES | Performance (1 yr immersed) Algae (algae; [1]) | Performance (1 yr immersed) Algae (algae; [2]) | Performance (1 yr immersed) Algae (algae; [3]) | Performance (1 yr immersed) Algae (algae; [4]) | Performance (1 yr immersed) Algae (algae; [5]) | Performance (1 yr immersed) Algae (algae; [6]) | Performance (1 yr immersed) Algae (algae; [7]) | Performance (1 yr immersed) Algae (algae; [8]) | Performance (1 yr immersed) Overall (fouling organisms; [9]) | Performance (1 yr immersed) Overall (fouling organisms; [1]) | Performance (1 yr immersed) Overall (fouling organisms; [2]) | Performance (1 yr immersed) Overall (fouling organisms; [3]) | Performance (1 yr immersed) Overall (fouling organisms; [4]) | Performance (1 yr immersed) Overall (fouling organisms; [5]) | Performance (1 yr immersed) Overall (fouling organisms; [6]) | Performance (1 yr immersed) Overall (fouling organisms; [7]) | Performance (1 yr immersed) Overall (fouling organisms; [8]) | Performance (1 yr immersed) Overall (fouling organisms; [10]) | Performance (1 yr immersed) Overall (fouling organisms; [11]) | Performance (1 yr immersed) Slime (slime; [9]) | also measured
1 | COC(=O)NCCCCCCBr [Compound 2, N-methoxycarbonyl-6-bromohexylamine] | G | G | G | G | G | G | G | G | S | S | G | F | S | G | F | S | S | F | S | S | Performance (1 yr immersed) Slime (slime; [1]): S; Performance (1 yr immersed) Slime (slime; [2]): G; Performance (1 yr immersed) Slime (slime; [3]): S; Performance (1 yr immersed) Slime (slime; [4]): S; Performance (1 yr immersed) Slime (slime; [5]): G; Performance (1 yr immersed) Slime (slime; [6]): S; Performance (1 yr immersed) Slime (slime; [7]): S; Performance (1 yr immersed) Slime (slime; [8]): S; Performance (1 yr immersed) Slime (slime; [10]): F; Performance (1 yr immersed) Slime (slime; [11]): S; Performance (1 yr immersed) Hard fouling (hard fouling; [9]): G; Performance (1 yr immersed) Hard fouling (hard fouling; [1]): G; Performance (1 yr immersed) Hard fouling (hard fouling; [2]): G; Performance (1 yr immersed) Hard fouling (hard fouling; [5]): G; Performance (1 yr immersed) Hard fouling (hard fouling; [11]): G
2 | O=CNCCCCCCCCCC(Br)CBr (centres unmarked) [Compound 3, N-formyl-10,11-dibromoundecylamine] | G | G | G | G | G | G | G | G | S | S | G | F | S | G | F | S | S | F | S | S | Performance (1 yr immersed) Slime (slime; [1]): S; Performance (1 yr immersed) Slime (slime; [2]): G; Performance (1 yr immersed) Slime (slime; [3]): S; Performance (1 yr immersed) Slime (slime; [4]): S; Performance (1 yr immersed) Slime (slime; [5]): G; Performance (1 yr immersed) Slime (slime; [6]): S; Performance (1 yr immersed) Slime (slime; [7]): S; Performance (1 yr immersed) Slime (slime; [8]): S; Performance (1 yr immersed) Slime (slime; [10]): F; Performance (1 yr immersed) Slime (slime; [11]): S; Performance (1 yr immersed) Hard fouling (hard fouling; [9]): G; Performance (1 yr immersed) Hard fouling (hard fouling; [1]): G; Performance (1 yr immersed) Hard fouling (hard fouling; [2]): G; Performance (1 yr immersed) Hard fouling (hard fouling; [5]): G; Performance (1 yr immersed) Hard fouling (hard fouling; [11]): G
3 | O=CNCCCCCCCCCCCBr [Compound 7, N-formyl-11-bromo-undecyl-1-amine] | G | G | G | G | G | G | G | G | S | S | G | F | S | G | F | S | S | F | S | S | Performance (1 yr immersed) Slime (slime; [1]): S; Performance (1 yr immersed) Slime (slime; [2]): G; Performance (1 yr immersed) Slime (slime; [3]): S; Performance (1 yr immersed) Slime (slime; [4]): S; Performance (1 yr immersed) Slime (slime; [5]): G; Performance (1 yr immersed) Slime (slime; [6]): S; Performance (1 yr immersed) Slime (slime; [7]): S; Performance (1 yr immersed) Slime (slime; [8]): S; Performance (1 yr immersed) Slime (slime; [10]): F; Performance (1 yr immersed) Slime (slime; [11]): S; Performance (1 yr immersed) Hard fouling (hard fouling; [9]): G; Performance (1 yr immersed) Hard fouling (hard fouling; [1]): G; Performance (1 yr immersed) Hard fouling (hard fouling; [2]): G; Performance (1 yr immersed) Hard fouling (hard fouling; [5]): G; Performance (1 yr immersed) Hard fouling (hard fouling; [11]): G
4 | CCCCCCCCCCCNC=O [Compound 9, N-formyl-1-aminoundecane] | G | G | G | G | G | G | G | G | S | S | G | F | S | G | F | S | S | F | S | S | Performance (1 yr immersed) Slime (slime; [1]): S; Performance (1 yr immersed) Slime (slime; [2]): G; Performance (1 yr immersed) Slime (slime; [3]): S; Performance (1 yr immersed) Slime (slime; [4]): S; Performance (1 yr immersed) Slime (slime; [5]): G; Performance (1 yr immersed) Slime (slime; [6]): S; Performance (1 yr immersed) Slime (slime; [7]): S; Performance (1 yr immersed) Slime (slime; [8]): S; Performance (1 yr immersed) Slime (slime; [10]): F; Performance (1 yr immersed) Slime (slime; [11]): S; Performance (1 yr immersed) Hard fouling (hard fouling; [9]): G; Performance (1 yr immersed) Hard fouling (hard fouling; [1]): G; Performance (1 yr immersed) Hard fouling (hard fouling; [2]): G; Performance (1 yr immersed) Hard fouling (hard fouling; [5]): G; Performance (1 yr immersed) Hard fouling (hard fouling; [11]): G
